Where two headings read alike, the source gives them in different places.
Legend:
[1] = test system: Xylella fastidiosa strain Temecula-1 (PDT); experiment: microbe, parasite or virus in culture; assay type: cell-based; conditions: for inhibition at 25 µM / inhibition at 50 µM: Xylella fastidiosa; for inhibition at 50 µM: 48 h, read-out: growth inhibition of Temecula1, 50 μM, 48 hrs, relative to untreated control; for inhibition at 25 µM / inhibition: 25 uM
[2] = test system: grapevines; experiment: Visible phytotoxicity in greenhouse after foliar spray or soil drench
[3] = test system: X. fastidiosa Temecula 1 in V. vinifera cv. Carignane; assay type: in vivo, Vitis vinifera; conditions: for leaves with PD symptoms: at the end of 3 months, untreated nearly 100%; for progression of PD symptoms: in vivo
[4] = test system: grapevine leaves (V. vinifera cv. Carignane)
[5] = test system: grapevine leaves (V. vinifera cv. Carignane); experiment: Leaf disc phytotoxicity, chlorophyll loss
[6] = test system: Ca. Liberibacter asiaticus (Las); assay type: in vivo, C. sinensis; conditions: soil drench 1 g/tree, Hamlins, as early as 20 days post treatment
[7] = test system: Xf PD strain in V. vinifera grapevines; parameters: species or system Vitis vinifera; conditions: in vivo
[8] = test system: Ca. Liberibacter asiaticus (Las); assay type: in vivo, C. paradisi; conditions: soil drench 15 g/tree, grapefruits, as early as 20 days post treatment

In the case of CC(Cc1ccc(O)c(O)c1)C(C)Cc1ccc(O)c(O)c1 (centres unmarked) [4,4′-(2,3 dimethyltetramethylene) dipyrocatechol], the inhibition at 25 µM [1] was 100% and the inhibition at 50 µM [1] was over 90%.
In the case of COc1ccc2[nH]c3c(C)c4ccncc4c(C)c3c2c1 [9-methoxyellipticine], the inhibition [1] was 100%.
With CC(C)(C)CC(C)(C)c1ccc(OCCOCC[N+](C)(C)Cc2ccccc2)cc1 [Benzethonium chloride] the visible phytotoxicity ([2]; foliar sprays) was “not evident”, the visible phytotoxicity ([2]; soil drench) was “not evident” and the “leaves with PD symptoms” value [3] was about 50%. For the same compound, the “progression of PD symptoms” value [3] was “significantly reduced as well as delayed progression of PD symptoms”, the “loss in chlorophyll content” value [4] was “increasingly significant loss in chlorophyll content” and the “phytotoxicity in the chlorophyll degradation assay” value ([5]; 25 mM) was “no appreciable phytotoxicity”.
Compound CC(=O)Oc1ccccc1C(=O)Nc1ncc([N+](=O)[O-])s1 [Nitazoxanide] has an inhibition at 25 µM [1] of 100%.
With Cc1cc2c(C(C)C)c(O)c(O)c(C=O)c2c(O)c1-c1c(C)cc2c(C(C)C)c(O)c(O)c(C=O)c2c1O [gossypol] the inhibition at 50 µM [1] was over 90%.
In the case of CC1=CC(=O)c2ccccc2C1=O [menadione, 2-methyl-1,4-naphthoquinone], the “Las metabolic activity (peroxidase gene expression relative to EF1 alpha)” value [6] was “measureable suppression of Las metabolic activity”, the visible phytotoxicity ([2]; foliar sprays) was “sporadic patches of purple pigmentation and necrosis” and the visible phytotoxicity ([2]; soil drench) was “not evident”. The “control of the progression of PD in field conditions” value [7] was “Effective”, the “leaves with PD symptoms” value [3] was about 50% and the “progression of PD symptoms” value [3] was “significantly reduced as well as delayed progression of PD symptoms”. The inhibition at 25 µM [1] was 100%, the inhibition at 50 µM [1] was over 90% and the “loss in total chlorophyll content” value ([5]; grapevine leaf discs, within 48 hours, all concentrations tested (as low as 25 mM), vs water-treated control) was about 40%. The “Las metabolic activity (peroxidase gene expression relative to EF1 alpha)” value [8] was “measureable suppression of Las metabolic activity”.
With Cc1nccc2c(C)c3[nH]c4ccccc4c3cc12 [olivacine] the inhibition [1] was 100%.
Work on Cc1cc2nc3c(=O)[nH]c(=O)nc-3n(C[C@H](O)[C@H](O)[C@H](O)CO)c2cc1N(C)C [roseoflavin] yielded an inhibition [1] of 100%.

Source: patent US20210219549A1 (priority 2018, published 2021)
